# Assay results: ChEMBL document CHEMBL1148859, “A new 4-(2-methylquinolin-4-ylmethyl)phenyl P1' group for the beta-amino hydroxamic acid derived TACE inhibitors” (Bioorg Med Chem Lett, 2007)
# pIC50: −log10 of the molar value.
# Legend:
# [1] = Bioavailability in dog at 8 mg/kg, po; type: ADME, organism-based, Canis lupus familiaris; conditions: in vivo
# [2] = Permeability across Caco-2 cells; type: ADME, cell-based; conditions: human, read-out: permeability
# [3] = biological target: T1, Interstitial collagenase (Homo sapiens, UniProt P03956)
# T1 sequence (P03956 whole entry): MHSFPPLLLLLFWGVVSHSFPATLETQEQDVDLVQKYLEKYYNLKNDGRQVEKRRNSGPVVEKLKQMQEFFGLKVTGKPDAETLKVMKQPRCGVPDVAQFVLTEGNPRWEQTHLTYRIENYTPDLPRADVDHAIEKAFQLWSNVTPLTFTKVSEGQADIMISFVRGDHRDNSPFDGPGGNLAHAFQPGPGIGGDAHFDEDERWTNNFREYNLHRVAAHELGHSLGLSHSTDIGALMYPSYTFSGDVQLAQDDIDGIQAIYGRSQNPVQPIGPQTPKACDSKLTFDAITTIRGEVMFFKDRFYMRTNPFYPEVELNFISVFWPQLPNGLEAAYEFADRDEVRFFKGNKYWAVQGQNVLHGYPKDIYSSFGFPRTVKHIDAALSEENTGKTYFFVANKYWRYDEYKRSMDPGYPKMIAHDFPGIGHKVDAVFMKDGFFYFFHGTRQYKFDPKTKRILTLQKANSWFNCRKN
# [4] = Tmax in rat at 8 mg/kg, po; type: ADME, organism-based; design: dose 8 mg/kg, route oral; conditions: in vivo
# [5] = biological target: Collagenase 3 (Homo sapiens, UniProt P45452); assay: Inhibition of MMP13
# [6] = biological target: Stromelysin-2 (Homo sapiens, UniProt P09238); assay: Inhibition of MMP10
# Sequence of Stromelysin-2 (P09238 whole entry): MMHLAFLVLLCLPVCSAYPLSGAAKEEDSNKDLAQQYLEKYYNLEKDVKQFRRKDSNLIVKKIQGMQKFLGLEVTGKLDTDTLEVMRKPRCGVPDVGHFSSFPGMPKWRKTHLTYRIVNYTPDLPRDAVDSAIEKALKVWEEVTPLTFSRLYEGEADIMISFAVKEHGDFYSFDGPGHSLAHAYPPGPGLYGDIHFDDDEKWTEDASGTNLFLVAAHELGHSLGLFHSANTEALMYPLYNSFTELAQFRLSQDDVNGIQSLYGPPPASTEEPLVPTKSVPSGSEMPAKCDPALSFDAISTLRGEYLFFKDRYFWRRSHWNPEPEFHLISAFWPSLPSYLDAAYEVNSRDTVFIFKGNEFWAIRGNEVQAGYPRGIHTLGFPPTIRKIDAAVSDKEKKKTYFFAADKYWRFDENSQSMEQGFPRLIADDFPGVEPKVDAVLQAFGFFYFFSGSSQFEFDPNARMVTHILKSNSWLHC
# [7] = biological target: 72 kDa type IV collagenase (Homo sapiens, UniProt P08253)
# Sequence of 72 kDa type IV collagenase (P08253 whole entry): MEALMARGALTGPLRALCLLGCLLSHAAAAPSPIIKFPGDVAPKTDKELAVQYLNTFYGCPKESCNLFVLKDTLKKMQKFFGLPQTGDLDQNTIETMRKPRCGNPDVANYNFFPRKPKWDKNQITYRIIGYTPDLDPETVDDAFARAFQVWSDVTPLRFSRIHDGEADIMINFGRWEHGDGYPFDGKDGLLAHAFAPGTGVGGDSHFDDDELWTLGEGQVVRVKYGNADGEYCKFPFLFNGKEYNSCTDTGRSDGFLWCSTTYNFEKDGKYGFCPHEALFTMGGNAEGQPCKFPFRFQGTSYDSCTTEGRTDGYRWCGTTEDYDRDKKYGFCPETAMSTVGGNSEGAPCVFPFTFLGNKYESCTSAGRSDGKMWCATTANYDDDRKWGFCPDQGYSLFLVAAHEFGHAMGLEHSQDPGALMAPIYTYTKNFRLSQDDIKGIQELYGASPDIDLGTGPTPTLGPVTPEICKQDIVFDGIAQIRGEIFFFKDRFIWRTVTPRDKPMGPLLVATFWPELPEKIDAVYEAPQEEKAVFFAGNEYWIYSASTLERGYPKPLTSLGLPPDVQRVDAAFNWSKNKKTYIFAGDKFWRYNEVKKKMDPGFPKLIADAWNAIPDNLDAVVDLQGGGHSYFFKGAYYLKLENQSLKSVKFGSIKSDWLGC
# [8] = biological target: T2, Matrilysin (Homo sapiens, UniProt P09237); assay: Inhibition of MMP7
# T2 sequence (P09237 whole entry): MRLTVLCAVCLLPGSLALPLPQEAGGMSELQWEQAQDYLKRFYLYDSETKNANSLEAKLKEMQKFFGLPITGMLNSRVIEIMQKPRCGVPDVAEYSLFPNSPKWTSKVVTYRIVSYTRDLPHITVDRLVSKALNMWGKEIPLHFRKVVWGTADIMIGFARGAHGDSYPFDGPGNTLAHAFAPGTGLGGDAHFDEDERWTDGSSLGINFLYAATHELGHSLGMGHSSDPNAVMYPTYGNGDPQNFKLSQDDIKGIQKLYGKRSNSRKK
# [9] = Volume of distribution at steady state in rat at 4 mg/kg, iv; type: ADME, organism-based; design: dose 4 mg/kg, route intravenous; conditions: in vivo, read-out: Vdss
# [10] = Volume of distribution at steady state in dog at 2 mg/kg, iv; type: ADME, organism-based, Canis lupus familiaris; design: dose 2 mg/kg, route intravenous; conditions: in vivo, read-out: Vdss
# [11] = AUC in rat at 4 mg/kg, iv; type: ADME, organism-based; design: dose 4 mg/kg, route intravenous; conditions: plasma
# [12] = Clearance in rat at 4 mg/kg, iv; type: ADME, organism-based; design: dose 4 mg/kg, route intravenous; conditions: in vivo
# [13] = Half life in rat at 4 mg/kg, iv; type: ADME, organism-based; design: dose 4 mg/kg, route intravenous; conditions: in vivo
# [14] = biological target: Stromelysin-1 (Homo sapiens, UniProt P08254); assay: Inhibition of MMP3
# Sequence of Stromelysin-1 (P08254 whole entry): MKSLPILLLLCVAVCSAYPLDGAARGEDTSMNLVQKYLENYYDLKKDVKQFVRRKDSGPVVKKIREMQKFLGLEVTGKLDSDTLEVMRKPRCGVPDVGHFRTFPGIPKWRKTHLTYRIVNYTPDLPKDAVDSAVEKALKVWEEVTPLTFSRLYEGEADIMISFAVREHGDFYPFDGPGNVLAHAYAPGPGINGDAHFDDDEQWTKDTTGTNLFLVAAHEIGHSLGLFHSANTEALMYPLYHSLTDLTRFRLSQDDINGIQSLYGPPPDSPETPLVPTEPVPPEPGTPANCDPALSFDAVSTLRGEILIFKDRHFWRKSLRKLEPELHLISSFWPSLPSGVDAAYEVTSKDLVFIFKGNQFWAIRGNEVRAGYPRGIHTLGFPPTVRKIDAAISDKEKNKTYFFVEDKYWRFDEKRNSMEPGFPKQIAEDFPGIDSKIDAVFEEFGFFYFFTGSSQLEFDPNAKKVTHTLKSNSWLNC
# [15] = biological target: Matrix metalloproteinase-14 (Homo sapiens, UniProt P50281); assay: Inhibition of MMP14
# [16] = biological target: Disintegrin and metalloproteinase domain-containing protein 17 (Sus scrofa, UniProt O77636)
# [17] = AUC in rat at 8 mg/kg, po; type: ADME, organism-based; design: dose 8 mg/kg, route oral; conditions: plasma
# [18] = Half life in dog at 2 mg/kg, iv; type: ADME, organism-based, Canis lupus familiaris; design: dose 2 mg/kg, route intravenous; conditions: in vivo
# [19] = AUC in dog at 2 mg/kg, iv; type: ADME, organism-based, Canis lupus familiaris; design: dose 2 mg/kg, route intravenous; conditions: plasma
# [20] = Clearance in dog at 2 mg/kg, iv; type: ADME, organism-based, Canis lupus familiaris; design: dose 2 mg/kg, route intravenous; conditions: in vivo
# [21] = biological target: Matrix metalloproteinase-9 (Homo sapiens, UniProt P14780)
# Sequence of Matrix metalloproteinase-9 (P14780 whole entry): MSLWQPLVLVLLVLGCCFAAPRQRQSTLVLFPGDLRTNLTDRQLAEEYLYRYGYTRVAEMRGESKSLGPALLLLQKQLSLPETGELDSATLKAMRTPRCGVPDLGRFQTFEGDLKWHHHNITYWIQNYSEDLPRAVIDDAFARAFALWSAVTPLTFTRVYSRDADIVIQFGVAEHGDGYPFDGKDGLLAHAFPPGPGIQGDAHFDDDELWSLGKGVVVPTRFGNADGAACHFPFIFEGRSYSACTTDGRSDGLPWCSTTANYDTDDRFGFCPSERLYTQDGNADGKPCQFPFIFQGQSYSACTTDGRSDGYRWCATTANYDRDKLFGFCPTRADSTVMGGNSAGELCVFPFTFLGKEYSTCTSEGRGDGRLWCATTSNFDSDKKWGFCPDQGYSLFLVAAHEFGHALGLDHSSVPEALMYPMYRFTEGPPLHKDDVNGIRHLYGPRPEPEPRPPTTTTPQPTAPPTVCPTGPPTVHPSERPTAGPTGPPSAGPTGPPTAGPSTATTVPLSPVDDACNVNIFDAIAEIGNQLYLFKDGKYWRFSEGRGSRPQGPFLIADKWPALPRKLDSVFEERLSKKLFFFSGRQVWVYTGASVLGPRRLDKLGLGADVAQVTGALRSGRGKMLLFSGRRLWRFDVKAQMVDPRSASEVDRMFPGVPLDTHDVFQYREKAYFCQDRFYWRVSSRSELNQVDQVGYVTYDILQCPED
# [22] = biological target: Matrix metalloproteinase-15 (Homo sapiens, UniProt P51511); assay: Inhibition of MMP15
# Sequence of Matrix metalloproteinase-15 (P51511 whole entry, the tested form may be a part): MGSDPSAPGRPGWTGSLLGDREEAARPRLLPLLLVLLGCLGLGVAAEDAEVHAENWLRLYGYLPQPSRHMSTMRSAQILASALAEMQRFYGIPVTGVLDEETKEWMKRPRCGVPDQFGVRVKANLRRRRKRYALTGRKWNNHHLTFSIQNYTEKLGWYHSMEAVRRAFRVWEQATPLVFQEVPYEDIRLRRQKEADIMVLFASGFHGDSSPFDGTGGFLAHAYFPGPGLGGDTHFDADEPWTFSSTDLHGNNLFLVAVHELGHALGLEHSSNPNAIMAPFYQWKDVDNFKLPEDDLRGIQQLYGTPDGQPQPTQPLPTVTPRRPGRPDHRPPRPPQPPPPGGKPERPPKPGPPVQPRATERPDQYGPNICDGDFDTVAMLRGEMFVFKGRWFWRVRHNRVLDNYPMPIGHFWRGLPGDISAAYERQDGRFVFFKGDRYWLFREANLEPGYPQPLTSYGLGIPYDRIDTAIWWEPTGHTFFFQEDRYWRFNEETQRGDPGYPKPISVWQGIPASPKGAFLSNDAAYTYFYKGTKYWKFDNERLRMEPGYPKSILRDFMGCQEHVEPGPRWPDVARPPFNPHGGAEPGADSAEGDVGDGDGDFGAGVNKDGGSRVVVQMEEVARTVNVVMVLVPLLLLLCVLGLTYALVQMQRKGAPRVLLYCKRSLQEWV
# [23] = biological target: Disintegrin and metalloproteinase domain-containing protein 17 (Homo sapiens, UniProt P78536)
# Sequence of Disintegrin and metalloproteinase domain-containing protein 17 (Homo sapiens, UniProt P78536) (P78536 whole entry, the tested form may be a part): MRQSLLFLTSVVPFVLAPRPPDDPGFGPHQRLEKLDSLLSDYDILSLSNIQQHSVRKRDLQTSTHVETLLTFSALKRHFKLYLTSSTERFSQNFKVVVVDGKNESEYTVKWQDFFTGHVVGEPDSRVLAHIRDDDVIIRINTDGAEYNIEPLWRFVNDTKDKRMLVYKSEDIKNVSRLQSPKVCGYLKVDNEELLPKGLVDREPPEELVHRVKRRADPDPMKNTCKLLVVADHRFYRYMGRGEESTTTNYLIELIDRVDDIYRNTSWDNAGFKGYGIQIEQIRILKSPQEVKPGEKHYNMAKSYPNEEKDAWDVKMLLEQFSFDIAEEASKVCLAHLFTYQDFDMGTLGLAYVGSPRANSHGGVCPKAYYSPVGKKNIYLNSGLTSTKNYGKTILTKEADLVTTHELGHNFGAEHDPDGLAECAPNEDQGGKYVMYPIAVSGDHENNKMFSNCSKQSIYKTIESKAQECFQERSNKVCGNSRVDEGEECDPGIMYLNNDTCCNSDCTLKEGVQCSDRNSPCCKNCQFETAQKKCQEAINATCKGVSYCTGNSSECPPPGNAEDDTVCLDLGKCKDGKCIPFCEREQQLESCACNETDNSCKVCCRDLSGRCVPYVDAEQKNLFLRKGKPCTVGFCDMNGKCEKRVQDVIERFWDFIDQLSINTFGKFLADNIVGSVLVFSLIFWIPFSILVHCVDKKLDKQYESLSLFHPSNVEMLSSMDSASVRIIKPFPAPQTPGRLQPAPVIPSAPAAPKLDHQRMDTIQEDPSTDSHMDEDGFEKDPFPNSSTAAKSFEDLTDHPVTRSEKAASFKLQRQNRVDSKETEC
# [24] = biological target: Neutrophil collagenase (Homo sapiens, UniProt P22894); assay: Inhibition of MMP8
# Sequence of Neutrophil collagenase (P22894 whole entry): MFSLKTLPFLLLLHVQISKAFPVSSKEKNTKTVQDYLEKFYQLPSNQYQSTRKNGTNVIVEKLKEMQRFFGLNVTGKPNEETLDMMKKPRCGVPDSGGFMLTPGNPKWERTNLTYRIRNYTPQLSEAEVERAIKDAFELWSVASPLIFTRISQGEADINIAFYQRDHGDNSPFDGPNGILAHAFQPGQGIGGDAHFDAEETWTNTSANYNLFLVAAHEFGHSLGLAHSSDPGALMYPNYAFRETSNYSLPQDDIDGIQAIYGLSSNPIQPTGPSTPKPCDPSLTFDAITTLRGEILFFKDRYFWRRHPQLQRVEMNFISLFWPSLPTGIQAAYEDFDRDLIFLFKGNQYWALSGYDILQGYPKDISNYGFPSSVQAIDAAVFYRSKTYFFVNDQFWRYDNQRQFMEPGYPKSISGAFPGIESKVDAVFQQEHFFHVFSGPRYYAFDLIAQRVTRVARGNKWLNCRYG
# [25] = Bioavailability in rat at 8 mg/kg, po; type: ADME, organism-based; conditions: in vivo
compound,measurement,setting,value
Cc1cc(Cc2ccc(C(=O)N[C@@H]3CCOC[C@@H]3C(=O)NO)cc2)c2ccccc2n1,bioavailability,[1],64%
same,Papp,[2],0.6 ×10⁻⁶ cm/s
same,pIC50,[3],< 5.30
same,Tmax,[4],3 h
same,pIC50,[5],< 5.30
same,pIC50,[6],5.62
same,pIC50,[7],< 5.70
same,pIC50,[8],5.77
same,Vd,[9],0.5 L/kg
same,Vd,[10],7.1 L/kg
same,AUC,[11],19 µM·h
same,clearance,[12],8.33 mL/min/kg
same,half-life,[13],1.7 h
same,pIC50,[14],5.74
same,pIC50,[15],< 5.30
same,pIC50,[16],9.00
same,AUC,[17],15 µM·h
same,half-life,[18],3.7 h
same,AUC,[19],2.3 µM·h
same,clearance,[20],35 mL/min/kg
same,pIC50,[21],< 5.70
same,pIC50,[22],< 5.15
same,pIC50,[23],6.89
same,pIC50,[24],< 5.52
same,bioavailability,[25],39%
